Results: ChEMBL document CHEMBL5608191, “Structure-based discovery of novel piperidine-biphenyl-DAPY derivatives as non-nucleoside reverse transcriptase inhibitors featuring improved potency, safety, and selectivity: From piperazine-biphenyl-DAPYs to piperidine-biphenyl-DAPYs” (Eur J Med Chem, 2024)
Values after ≈ are worked out from the molar mass of the structure shown.

How the values were obtained:
[1] = Solubility of compound in phosphate buffer at pH 7.4 by HPLC analysis; type: physicochemical
[2] = Solubility of compound in water by HPLC analysis; type: physicochemical
[3] = Solubility of compound in phosphate buffer at pH 2 by HPLC analysis; type: physicochemical
[4] = Solubility of compound in phosphate buffer at pH 7 by HPLC analysis; type: physicochemical
[5] = Cytotoxicity against human MT4 cells assessed as reduction in cell viability incubated for 5 days by MTT assay; type: toxicity, cell-based; conditions: time 5 day
[6] = test system: Human immunodeficiency virus 1; assay: Antiviral activity against HIV-1 harboring RT E138K mutant infected in human MT4 cells assessed as protection against virus-induced cytopathic effect incubated for 5 days by MTT assay; type: functional, organism-based; conditions: Human immunodeficiency virus 1, MT4, 120 h
[7] = test system: Human immunodeficiency virus 1; assay: Antiviral activity against HIV-1 harboring RT Y188L mutant infected in human MT4 cells assessed as protection against virus-induced cytopathic effect incubated for 5 days by MTT assay; type: functional, organism-based; conditions: Human immunodeficiency virus 1, MT4, 120 h
[8] = target: Human immunodeficiency virus type 1 reverse transcriptase (Human immunodeficiency virus 1, UniProt Q72547); assay: Inhibition of recombinant wild-type HIV-1 reverse transcriptase incubated for 40 mins by fluorescence based assay
[9] = test system: Human immunodeficiency virus 1; assay: Antiviral activity against wild-type HIV-1 IIIB infected in human MT4 cells assessed as protection against virus-induced cytopathic effect incubated for 5 days by MTT assay; type: functional, organism-based; conditions: Human immunodeficiency virus 1, IIIB, MT4, 120 h
[10] = Acute toxicity in mouse assessed as apparent pathological damage in heart treated for 14 days by H and E staining based analysis; type: tissue-based; conditions: in vivo, 336 h, time 14 day
[11] = Acute toxicity in mouse assessed as apparent pathological damage in lung treated for 14 days by H and E staining based analysis; type: tissue-based; conditions: in vivo, 336 h, time 14 day
[12] = Acute toxicity in mouse assessed as animal death treated for 14 days; conditions: in vivo, 336 h, time 14 day
Cytochrome P450 3A4 [13] = target: T1, Cytochrome P450 3A4 (Homo sapiens, UniProt P08684); assay: Inhibition of CYP3A4 (unknown origin) using testosterone as substrate; type: ADME
T1 sequence (P08684 whole entry): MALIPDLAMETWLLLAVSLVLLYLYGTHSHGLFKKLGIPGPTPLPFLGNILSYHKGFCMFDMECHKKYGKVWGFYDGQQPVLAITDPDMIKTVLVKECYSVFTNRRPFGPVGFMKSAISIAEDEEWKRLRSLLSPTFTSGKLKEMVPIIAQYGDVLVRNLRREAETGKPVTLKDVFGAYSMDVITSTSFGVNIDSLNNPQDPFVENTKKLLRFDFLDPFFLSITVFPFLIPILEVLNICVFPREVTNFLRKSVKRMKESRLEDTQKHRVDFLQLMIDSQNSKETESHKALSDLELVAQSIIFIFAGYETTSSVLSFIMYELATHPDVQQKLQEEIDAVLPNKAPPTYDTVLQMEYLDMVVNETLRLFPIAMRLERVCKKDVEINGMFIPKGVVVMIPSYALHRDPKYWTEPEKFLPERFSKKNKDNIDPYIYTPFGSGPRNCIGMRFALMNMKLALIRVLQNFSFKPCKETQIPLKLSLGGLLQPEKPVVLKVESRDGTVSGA

[14] = Acute toxicity in mouse assessed as apparent pathological damage in liver treated for 14 days by H and E staining based analysis; type: tissue-based; conditions: in vivo, 336 h, time 14 day
[15] = Acute toxicity in mouse assessed as drug tolerance at 2 g/kg treated for 14 days; conditions: in vivo, 2000 mg/kg, 336 h, time 14 day
[16] = Acute toxicity in mouse assessed as apparent pathological damage in spleen treated for 14 days by H and E staining based analysis; type: tissue-based; conditions: in vivo, 336 h, time 14 day
[17] = Acute toxicity in mouse assessed as change in body weight treated for 14 days; conditions: in vivo, 336 h, time 14 day
Cytochrome P450 3A4 [18] = target: T1, Cytochrome P450 3A4; assay: Inhibition of CYP3A4 (unknown origin) using midazolam as substrate; type: ADME
[19] = test system: Human immunodeficiency virus 1; assay: Antiviral activity against HIV-1 harboring RT K103N mutant infected in human MT4 cells assessed as protection against virus-induced cytopathic effect incubated for 5 days by MTT assay; type: functional, organism-based; conditions: Human immunodeficiency virus 1, MT4, 120 h
[20] = Selectivity index, ratio of CC50 for human MT4 cells to EC50 for wild-type HIV-1 IIIB infected in human MT4 cells; type: toxicity, cell-based; conditions: read-out: Ratio CC50/EC50
Cytochrome P450 1A2 = target: T2, Cytochrome P450 1A2 (Homo sapiens, UniProt P05177); assay: Inhibition of CYP1A2 (unknown origin); type: ADME
T2 sequence (P05177 whole entry): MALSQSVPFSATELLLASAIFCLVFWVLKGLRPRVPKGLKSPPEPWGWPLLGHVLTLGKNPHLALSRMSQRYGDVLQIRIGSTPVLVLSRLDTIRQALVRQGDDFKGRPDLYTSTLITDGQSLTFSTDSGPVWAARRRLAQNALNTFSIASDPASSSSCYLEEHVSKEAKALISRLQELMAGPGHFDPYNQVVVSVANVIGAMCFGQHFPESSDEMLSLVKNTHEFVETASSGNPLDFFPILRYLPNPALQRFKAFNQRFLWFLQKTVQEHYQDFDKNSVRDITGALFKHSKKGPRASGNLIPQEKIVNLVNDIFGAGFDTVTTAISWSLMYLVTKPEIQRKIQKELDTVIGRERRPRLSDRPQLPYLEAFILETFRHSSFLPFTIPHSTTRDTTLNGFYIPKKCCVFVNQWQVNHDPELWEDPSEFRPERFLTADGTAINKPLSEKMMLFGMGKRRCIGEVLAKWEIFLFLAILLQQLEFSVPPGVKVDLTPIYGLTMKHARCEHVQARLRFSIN

[21] = target: Voltage-gated inwardly rectifying potassium channel KCNH2 (Homo sapiens, UniProt Q12809); assay: Inhibition of hERG expressed in CHO cells; type: toxicity, cell-based
Chain of Voltage-gated inwardly rectifying potassium channel KCNH2 (Q12809 whole entry): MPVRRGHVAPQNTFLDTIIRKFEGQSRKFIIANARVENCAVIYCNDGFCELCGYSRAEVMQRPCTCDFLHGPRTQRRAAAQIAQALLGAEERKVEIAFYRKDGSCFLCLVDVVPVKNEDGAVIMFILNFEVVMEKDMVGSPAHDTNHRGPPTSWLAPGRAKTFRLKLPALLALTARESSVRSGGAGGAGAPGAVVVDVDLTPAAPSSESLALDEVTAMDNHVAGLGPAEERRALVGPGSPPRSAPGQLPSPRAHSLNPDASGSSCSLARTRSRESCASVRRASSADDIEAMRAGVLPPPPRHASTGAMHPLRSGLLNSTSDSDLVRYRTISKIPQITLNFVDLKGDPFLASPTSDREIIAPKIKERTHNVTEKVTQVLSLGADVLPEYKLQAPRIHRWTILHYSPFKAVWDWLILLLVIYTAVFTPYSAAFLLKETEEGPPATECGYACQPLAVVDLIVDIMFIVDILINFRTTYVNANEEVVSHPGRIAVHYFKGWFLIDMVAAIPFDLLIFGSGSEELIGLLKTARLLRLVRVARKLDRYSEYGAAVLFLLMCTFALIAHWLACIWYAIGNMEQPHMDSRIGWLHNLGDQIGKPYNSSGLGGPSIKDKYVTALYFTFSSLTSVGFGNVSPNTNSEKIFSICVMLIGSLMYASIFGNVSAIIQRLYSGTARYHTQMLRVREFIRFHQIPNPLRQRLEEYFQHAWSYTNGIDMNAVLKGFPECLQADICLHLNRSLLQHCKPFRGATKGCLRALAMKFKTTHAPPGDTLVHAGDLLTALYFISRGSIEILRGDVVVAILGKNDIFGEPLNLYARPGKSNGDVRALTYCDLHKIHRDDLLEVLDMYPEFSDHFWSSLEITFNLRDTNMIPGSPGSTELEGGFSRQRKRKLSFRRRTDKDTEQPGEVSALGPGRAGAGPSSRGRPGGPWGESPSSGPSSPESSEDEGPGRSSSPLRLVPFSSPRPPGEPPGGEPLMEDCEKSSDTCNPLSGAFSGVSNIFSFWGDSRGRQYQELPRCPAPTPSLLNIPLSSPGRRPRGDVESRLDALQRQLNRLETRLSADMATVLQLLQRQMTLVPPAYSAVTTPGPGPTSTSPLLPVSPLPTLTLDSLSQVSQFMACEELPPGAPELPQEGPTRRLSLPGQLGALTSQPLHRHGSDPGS

[22] = Acute toxicity in mouse assessed as apparent pathological damage in brain treated for 14 days by H and E staining based analysis; type: tissue-based; conditions: in vivo, 336 h, time 14 day
Cytochrome P450 2C19 = Cytochrome P450 2C19 (Homo sapiens, UniProt P33261); assay: Inhibition of CYP2C19 (unknown origin); type: ADME
Chain of Cytochrome P450 2C19 (P33261 whole entry): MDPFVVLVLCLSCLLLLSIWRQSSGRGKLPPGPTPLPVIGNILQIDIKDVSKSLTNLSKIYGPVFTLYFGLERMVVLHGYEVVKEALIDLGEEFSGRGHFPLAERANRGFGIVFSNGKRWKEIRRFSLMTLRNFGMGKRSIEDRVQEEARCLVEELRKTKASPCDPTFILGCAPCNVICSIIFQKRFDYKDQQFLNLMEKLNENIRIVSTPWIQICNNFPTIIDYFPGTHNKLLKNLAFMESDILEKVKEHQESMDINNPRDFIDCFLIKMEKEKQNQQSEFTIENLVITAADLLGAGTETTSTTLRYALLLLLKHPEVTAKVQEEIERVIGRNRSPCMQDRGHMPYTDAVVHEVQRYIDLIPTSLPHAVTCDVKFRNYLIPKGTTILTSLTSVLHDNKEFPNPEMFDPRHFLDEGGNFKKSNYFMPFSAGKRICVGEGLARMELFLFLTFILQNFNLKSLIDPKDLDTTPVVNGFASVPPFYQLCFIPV

[23] = Acute toxicity in mouse assessed as apparent pathological damage in kidney treated for 14 days by H and E staining based analysis; conditions: in vivo, 336 h, time 14 day
Cytochrome P450 2C9 = Cytochrome P450 2C9 (Homo sapiens, UniProt P11712); assay: Inhibition of CYP2C9 (unknown origin); type: ADME
Chain of Cytochrome P450 2C9 (P11712 whole entry): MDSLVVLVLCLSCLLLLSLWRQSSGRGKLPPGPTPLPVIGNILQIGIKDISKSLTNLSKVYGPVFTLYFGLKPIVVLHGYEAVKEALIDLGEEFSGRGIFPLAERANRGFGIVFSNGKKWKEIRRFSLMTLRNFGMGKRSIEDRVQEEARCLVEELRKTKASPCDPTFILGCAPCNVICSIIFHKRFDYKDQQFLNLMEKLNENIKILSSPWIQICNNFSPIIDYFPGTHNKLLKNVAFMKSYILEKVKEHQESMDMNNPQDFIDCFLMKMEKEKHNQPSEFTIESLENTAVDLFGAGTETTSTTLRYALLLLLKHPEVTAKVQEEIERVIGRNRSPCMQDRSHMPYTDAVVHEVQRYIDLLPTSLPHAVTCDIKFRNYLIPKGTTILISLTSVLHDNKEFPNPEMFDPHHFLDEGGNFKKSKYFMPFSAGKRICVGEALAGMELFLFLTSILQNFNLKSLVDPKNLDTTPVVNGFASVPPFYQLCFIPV

Cytochrome P450 2D6 = Cytochrome P450 2D6 (Homo sapiens, UniProt P10635); assay: Inhibition of CYP2D6 (unknown origin); type: ADME
Chain of Cytochrome P450 2D6 (P10635 whole entry): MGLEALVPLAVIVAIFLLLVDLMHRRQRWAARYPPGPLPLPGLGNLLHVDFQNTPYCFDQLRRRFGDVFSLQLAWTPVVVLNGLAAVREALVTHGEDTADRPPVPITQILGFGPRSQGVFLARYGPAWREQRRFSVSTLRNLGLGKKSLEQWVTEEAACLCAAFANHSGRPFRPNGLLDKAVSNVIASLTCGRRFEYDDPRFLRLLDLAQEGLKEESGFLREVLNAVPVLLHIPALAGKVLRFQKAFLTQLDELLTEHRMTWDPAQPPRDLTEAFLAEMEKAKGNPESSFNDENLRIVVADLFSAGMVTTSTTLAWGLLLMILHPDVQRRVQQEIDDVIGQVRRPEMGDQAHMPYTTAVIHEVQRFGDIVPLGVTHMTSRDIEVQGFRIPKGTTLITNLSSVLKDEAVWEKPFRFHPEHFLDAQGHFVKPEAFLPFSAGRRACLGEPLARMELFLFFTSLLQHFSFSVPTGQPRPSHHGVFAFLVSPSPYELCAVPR

[24] = test system: Human immunodeficiency virus 1; assay: Antiviral activity against HIV-1 harboring RT L100I mutant infected in human MT4 cells assessed as protection against virus-induced cytopathic effect incubated for 5 days by MTT assay; type: functional, organism-based; conditions: Human immunodeficiency virus 1, MT4, 120 h
[25] = test system: Human immunodeficiency virus 1; assay: Antiviral activity against HIV-1 harboring RT Y181C mutant infected in human MT4 cells assessed as protection against virus-induced cytopathic effect incubated for 5 days by MTT assay; type: functional, organism-based; conditions: Human immunodeficiency virus 1, MT4, 120 h
[26] = Acute toxicity in mouse assessed as toxic symptoms treated for 14 days; conditions: in vivo, 336 h, time 14 day
Cytochrome P450 3A4 [27] = target: T1, Cytochrome P450 3A4; assay: Inhibition of CYP3A4 (unknown origin); type: ADME

With `Br.CCOC(=O)c1cnc(NC2CCN(Cc3ccc(C(=O)NC)cc3)CC2)nc1Nc1c(C)cc(-c2ccc(C#N)cc2)cc1C` the solubility [1] was < 1 µg/mL, the solubility [2] was 91.4 µg/mL and the solubility [3] was 141 µg/mL. The solubility [4] was < 1 µg/mL.
In the case of `Cc1cc(C#N)cc(C)c1Oc1nc(Nc2ccc(C#N)cc2)nc(N)c1Br` [ETRAVIRINE], the CC50 at 120 h [5] is reported as > 4610 nM, the solubility [1] is reported as < 1 µg/mL and the EC50 [6] is reported as 13 nM. For the same compound, the solubility [4] was < 1 µg/mL and the EC50 [7] was 24 nM.
With `CCOC(=O)c1cnc(NC2CCN(Cc3ccc(C(=O)NC)cc3)CC2)nc1Oc1c(C)cc(-c2ccc(C#N)cc2)cc1C.Cl` the solubility [1] was < 1 µg/mL, the solubility [2] was 336 µg/mL and the solubility [3] was 103 µg/mL. For the same compound, the solubility [4] was < 1 µg/mL.
In the case of `Cc1cc(/C=C/C#N)cc(C)c1Nc1ccnc(Nc2ccc(C#N)cc2)n1` [RILPIVIRINE], the solubility [1] is reported as < 1 µg/mL, the solubility [4] is reported as < 1 µg/mL and the IC50 [8] is reported as 35 nM.
With `CCOC(=O)c1cnc(NC2CCN(Cc3ccc(C(=O)NC)cc3)CC2)nc1Nc1c(C)cc(-c2ccc(C#N)cc2)cc1C.O=P(O)(O)O` the solubility [1] was < 1 µg/mL, the solubility [2] was 77.2 µg/mL and the solubility [3] was 136 µg/mL. The solubility [4] was < 1 µg/mL.
For `CCOC(=O)c1cnc(NC2CCN(Cc3ccc(C(=O)NC)cc3)CC2)nc1Oc1c(C)cc(-c2ccc(C#N)cc2)cc1C`, the CC50 at 120 h [5] was > 202000 nM, the EC50 [9] was 6 nM and the Activity [10] was “Non-Toxic”. For the same compound, the solubility [1] was < 1 µg/mL, the Activity [11] was “Non-Toxic” and the Activity [12] was “Non-Toxic”. The IC50 (Cytochrome P450 3A4 [13]) was > 50000 nM, the Activity [14] was “Non-Toxic” and the EC50 [6] was 47 nM. The Activity [15] was “Non-Toxic”, the Activity [16] was “Non-Toxic” and the Activity [17] was “Non-Toxic”. For the same compound, the IC50 (Cytochrome P450 3A4 [18]) was > 50000 nM, the EC50 [19] was 7 nM and the solubility [2] was < 1 µg/mL. The solubility [3] was 109 µg/mL (≈ 177 µM), the selectivity ratio [20] was > 33100 and the IC50 (Cytochrome P450 1A2) was > 50000 nM. For the same compound, the IC50 [21] was 25900 nM, the Activity [22] was “Non-Toxic” and the IC50 (Cytochrome P450 2C19) was > 50000 nM. The Activity [23] was “Non-Toxic”, the solubility [4] was < 1 µg/mL and the IC50 [8] was 713 nM. For the same compound, the IC50 (Cytochrome P450 2C9) was > 50000 nM, the IC50 (Cytochrome P450 2D6) was > 50000 nM and the EC50 [7] was 63 nM. The EC50 [24] was 29 nM, the EC50 [25] was 38 nM and the Activity [26] was “Non-Toxic”.
Compound `C[C@]12CC[C@H]3[C@@H](CCC4=CC(=O)CC[C@@]43C)[C@@H]1CC[C@@H]2O` [TESTOSTERONE] has an IC50 (Cytochrome P450 3A4 [27]) of 37 nM.
In the case of `CCOC(=O)c1cnc(NC2CCN(Cc3ccc(C(=O)NC)cc3)CC2)nc1Nc1c(C)cc(-c2ccc(C#N)cc2)cc1C.O=S(=O)(O)O`, the solubility [1] is reported as < 1 µg/mL, the solubility [2] is reported as 134 µg/mL and the solubility [3] is reported as 147 µg/mL. The solubility [4] was < 1 µg/mL.
Compound `COc1ccc2c(c1)[C@]13CCCC[C@@H]1[C@H](C2)N(C)CC3` [DEXTROMETHORPHAN] has an IC50 (Cytochrome P450 2D6) of 242 nM.
With `CCOC(=O)c1cnc(NC2CCN(Cc3ccc(S(N)(=O)=O)cc3)CC2)nc1Oc1c(C)cc(-c2ccc(C#N)cc2)cc1C` the CC50 at 120 h [5] was > 195000 nM, the EC50 [9] was 35 nM and the EC50 [6] was 83 nM. The EC50 [19] was 46 nM, the selectivity ratio [20] was > 5640 and the IC50 [8] was 736 nM. It also gave an EC50 [7] of 538 nM, an EC50 [24] of 212 nM and an EC50 [25] of 202 nM.
